Data reported in the supplement of paper PMC10307832.

compound: Cc1cnc(CNC(=O)c2c(=O)c3ccc(N4CCCN(C)CC4)nc3n3c2sc2ccccc23)cn1 [CX-5461] + O=C(c1cc(Cc2n[nH]c(=O)c3ccccc23)ccc1F)N1CCN(C(=O)C2CC2)CC1 [Olaparib] (partner 8 µM); test: relative viability (nuclei count vs DMSO), 5 days (fraction); higher = more cells survive; conditions: first compound 1 µM
Procedure, shortened: (§1)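 One day after seeding in 1536-well plates, lung cancer cell lines were dosed by pin tool. Dosing was either single-drug or a fixed anchor-drug dose plus five library-drug doses (not always all listed) in √10 steps. After 5 days, nuclei were stained in one fix-and-stain step and counted on 4× images, and relative viability is the nuclei count of treated wells over that of vehicle wells, given as the median of duplicate plates.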

Cell Line | relative viability
PC-14 | 0.0738

compound: O=C(Nc1cc(C(F)(F)F)cc(C(F)(F)F)c1)c1cc(Cl)ccc1O [IMD-0354] + NC(=O)Nc1cc(-c2cccc(F)c2)sc1C(=O)N[C@H]1CCCNC1 [AZD7762] (partner 0.2 µM); test: as above; conditions: first compound 0.04 µM
Procedure, shortened: as §1

Cell Line | relative viability
NCI-H358 | 0.591
NCI-H2405 | 0.964
HOP-62 | 0.741
HCC-44 | 0.988
LU99A | 0.246
BEN | 0.715
HARA | 0.281
HCC-78 | 0.783
NCI-H322M | 0.566
LCLC-97TM1 | 0.315
A-427 | 1.01
NCI-H441 | 1.4
NCI-H1734 | 0.573
NCI-H460 | 0.649
NCI-H2347 | 0.829
NCI-H1793 | 0.592

Cell Line | relative viability
201T | 0.511
NCI-H1915 | 0.666
HCC-827 | 0.204
LXF-289 | 1.07
NCI-H23 | 0.252
NCI-H647 | 0.707
NCI-H1651 | 0.468
EPLC-272H | 0.167
NCI-H1792 | 0.896
NCI-H1355 | 0.813
NCI-H3122 | 1.05
NCI-H1437 | 1.12
NCI-H1755 | 0.412
HCC-15 | 1.07
NCI-H1944 | 0.433
PC-14 | 0.424

same assay, conditions: first compound 0.1265 µM

Cell Line | relative viability
NCI-H358 | 0.433
NCI-H2405 | 0.829
HOP-62 | 0.977
HCC-44 | 1.01
LU99A | 0.393
BEN | 0.793
HARA | 0.357
HCC-78 | 0.658
NCI-H322M | 0.548
LCLC-97TM1 | 0.449
A-427 | 0.827
NCI-H441 | 1.31
NCI-H1734 | 0.565
NCI-H460 | 0.756
NCI-H2347 | 0.838
NCI-H1793 | 0.542

Cell Line | relative viability
201T | 0.616
NCI-H1915 | 0.694
HCC-827 | 0.239
LXF-289 | 1.09
NCI-H23 | 0.253
NCI-H647 | 0.531
NCI-H1651 | 0.504
EPLC-272H | 0.217
NCI-H1792 | 0.517
NCI-H1355 | 0.914
NCI-H3122 | 1.05
NCI-H1437 | 1.09
NCI-H1755 | 0.546
HCC-15 | 1.13
NCI-H1944 | 0.541
PC-14 | 0.391

same assay, conditions: first compound 0.4 µM

Cell Line | relative viability
NCI-H358 | 0.384
NCI-H2405 | 0.514
HOP-62 | 0.473
HCC-44 | 1.01
LU99A | 0.332
BEN | 0.487
HARA | 0.38
HCC-78 | 0.543
NCI-H322M | 0.48
LCLC-97TM1 | 0.222
A-427 | 0.585
NCI-H441 | 0.664
NCI-H1734 | 0.417
NCI-H460 | 0.301
NCI-H2347 | 0.617
NCI-H1793 | 0.337

Cell Line | relative viability
201T | 0.392
NCI-H1915 | 0.58
HCC-827 | 0.215
LXF-289 | 0.866
NCI-H23 | 0.229
NCI-H647 | 0.309
NCI-H1651 | 0.422
EPLC-272H | 0.162
NCI-H1792 | 0.551
NCI-H1355 | 0.622
NCI-H3122 | 0.623
NCI-H1437 | 0.755
NCI-H1755 | 0.344
HCC-15 | 0.923
NCI-H1944 | 0.488
PC-14 | 0.145

same assay, conditions: first compound 1.265 µM

Cell Line | relative viability
NCI-H358 | 0.245
NCI-H2405 | 0.29
HOP-62 | 0.327
HCC-44 | 0.855
LU99A | 0.185
BEN | 0.334
HARA | 0.177
HCC-78 | 0.672
NCI-H322M | 0.268
LCLC-97TM1 | 0.185
A-427 | 0.14
NCI-H441 | 0.24
NCI-H1734 | 0.198
NCI-H460 | 0.0985
NCI-H2347 | 0.281
NCI-H1793 | 0.181

Cell Line | relative viability
201T | 0.657
NCI-H1915 | 0.507
HCC-827 | 0.183
LXF-289 | 0.345
NCI-H23 | 0.13
NCI-H647 | 0.0742
NCI-H1651 | 0.161
EPLC-272H | 0.19
NCI-H1792 | 0.17
NCI-H1355 | 0.494
NCI-H3122 | 0.271
NCI-H1437 | 0.247
NCI-H1755 | 0.365
HCC-15 | 0.648
NCI-H1944 | 0.321
PC-14 | 0.128

same assay, conditions: first compound 4 µM

Cell Line | relative viability
NCI-H358 | 0.255
NCI-H2405 | 0.414
HOP-62 | 0.176
HCC-44 | 0.314
LU99A | 0.151
BEN | 0.347
HARA | 0.141
HCC-78 | 0.485
NCI-H322M | 0.479
LCLC-97TM1 | 0.128
A-427 | 0.202
NCI-H441 | 0.293
NCI-H1734 | 0.152
NCI-H460 | 0.0595
NCI-H2347 | 0.345
NCI-H1793 | 0.205
201T | 0.214
NCI-H1915 | 0.149
HCC-827 | 0.153
LXF-289 | 0.133
NCI-H23 | 0.222
NCI-H647 | 0.159
NCI-H1651 | 0.14
EPLC-272H | 0.118
NCI-H1792 | 0.0979
NCI-H1355 | 0.23
NCI-H3122 | 0.133
NCI-H1437 | 0.297
NCI-H1755 | 0.274
HCC-15 | 0.157
